The nature of this data set: Stability testing of macrocyclic copper chelates: DTPA challenge analysed by reversed phase HPLC. It counts as physicochemical. Particulars: approximately 1 mM complex in 100 mM Tris-HCl buffer, pH 7.5, combined one to one with 55 mM DTPA, ambient temperature, 30 minutes. The procedure: Stability testing of macrocyclic copper chelates. (FIG. 1).
Example 13. Copper complexes 27, 39, and 44 were dissolved at approximately 1 mM concentration in 100 mM Tris-HCl buffer, pH 7.5. A solution of 55 mM diethylenetriaminepentaacetic acid (DTPA), pH 7.5 was prepared. Copper complexes were analyzed by reversed phase HPLC using an Agilent 1200 Series instrument equipped with a Zorbax Eclipse XDB-C18 4.6×150 mm 5 μm column. The method used an isocratic gradient of 0.1M triethylammonium bicarbonate, pH 7.5 (Solvent A) and 10-80% acetonitrile (Solvent B) as mobile phases. A solution of copper complex and DTPA solution combined in a ratio of one to one was prepared and mixed at ambient temperature for 30 minutes prior to analysis. Admixture of DTPA and copper complexes led to variable levels of dissociation of the copper complex, as quantified by the elution of the metal free ligand at shorter retention time.
Consider “Copper(II) complex of 6-(2-aminoethyl)-1^6,11^6-dimercapto-2,10,12,25-tetraoxo-17,20-dioxa-3,6,9,13,24-pentaaza-1,11(2,5)-dipyridin-1-iumacyclopentacosaphane 1^1,11^1-dioxide [Compound 39]”, for which the “stability of the copper complex in the presence of DTPA competitor (dissociation quantified by elution of the metal free ligand)” value is on record as “more stable than compound 27”.

Turning to “Copper complex of 16-(2-(4-(((S)-5-carboxy-5-(3-((S)-1,3-dicarboxypropyl)ureido)pentyl)carbamoyl)benzamido)ethyl)-1^6,11^6-dimercapto-2,10,12,20-tetraoxo-6- oxa-3,9,13,16,19-pentaaza-1,11(2,5)-dipyridin-1-iumacycloicosaphane 1^1,11^1-dioxide [Compound 27]”, the “stability of the copper complex in the presence of DTPA competitor (dissociation quantified by elution of the metal free ligand)” value is “both are more stable than compound 27”.

Consider “Copper(II) complex of 4-((2-(2-aminoethoxy)ethyl)carbamoyl)-1^6,10^6-dimercapto-2,9,11,24-tetraoxo-16,19-dioxa-3,8,12,23-tetraaza-1,10(2,5)-dipyridin-1- iumacyclotetracosaphane 1^1,10^1-dioxide, trifluoroacetate salt [Compound 44]”, for which the “stability of the copper complex in the presence of DTPA competitor (dissociation quantified by elution of the metal free ligand)” value is “more stable in the presence of DTPA competitor than complex 39”.

For the origin of these results see patent US20240059668A1, “THIOHYDROXYPYRIDINE CHELATES” (LUMIPHORE, INC., priority 2020, published 2024).
